{"source": "patent US20250268859A1", "about": "“OXAFURAMINE, (1R)-N-ETHYL-1-[(2R)-OXOLAN-2-YL]-2-[…], HYDROCHLORIDE AND DERIVATIVES THEREOF FOR TREATING ALZHEIMER'S DISEASE (AD), […] […], […] WITH LEWY BODIES (DLB), MIXED […], FRON[…] DEGENERATION (FTLD), AND PARKINSON'S DISEASE (PD)” (NLS Pharmaceutics AG, priority 2021, published 2025)", "type_in_all_cases": "in vivo, C57BL/6J, male", "key": {"[1]": {"system": "memory (recognition of the familiar object) in mice", "assay": "Novel Object Recognition (NOR) test in mice", "conditions": "mean, N = 16", "experimental": "The test was carried out in circular boxes (30 cm diameter, 40 cm high). The objects to be discriminated (L≈1≈h≈3-4 cm) differed in both color and shape and were referred as yellow duck and blue lego. They were fixed with a magnet to the floor of the boxes at 5 cm of the wall, 20 cm distant. Apparently, they have no natural significance for mice and they have never been associated with a reinforcement. In order to rule out the possibility of scent traces left on the objects and therefore the dependency of the recognition capacity of mice on the olfactory cue, the objects and the ground of the box were washed with an odorless disinfectant (Sanicid® diluted in water) and dried between each trial. A camcorder was fixed to the ceiling above the box to record the animals' activity. The experiment was analyzed blindly at a later time.\nOn the week before the test, animals were handled by the experimenter in charge of the experiment in order to be not stressed at the time of testing. For this purpose, the experimenter placed a small amount of litter, and then the mouse on its hand.\nThe NOR test was completed over five days (see FIG. 1): • Day 1: Habituation trial. Animals were individually placed for a 15-min free exploration session in empty open boxes. • Day 2. Treatment administration and sample trial. […] They were individually placed 30 min after in the apparatus for a 6-min session with two identical objects (Duck, 50% of animals or Lego, 50% of animals). • Day 3. Choice trial. The mice were individually placed for a 6-min session in the apparatus with two objects (Duck and Lego), one of the objects presented in sample trials (termed as familiar objects) and a novel object (Lego, 50% of animals or Duck, 50% of animals).\nThe sample and choice trials were recorded with the camera located above the apparatus. The time spent by mice in exploring the objects was measured during the sample trial and the choice trial. Exploration of an object was defined as follows: directing the nose to the object at a distance≤2 cm and/or touching it with the nose or forelimbs; turning around or biting the object, or sitting on the object were not considered as exploratory behavior.\n• L=exploration time of the left object in the sample trial. • R=exploration time of the right object in the sample trial. • N=exploration time of the new object in the choice trial. • F=exploration time of the familiar object in the choice trial.\n• Exploration indices: • ST=L+R=exploration time (left object+right object) in the sample trial. • CT=N+F=exploration time (new object+familiar object) in the choice trial. • Two memory indices: • N-F=difference of exploration time between the new object and the familiar object in the choice trial.\n(§1) Statistical analyses: • Read-outs: DI, N-F, ST, CT, N, F • Unpaired Student's t test: Donep 2 group vs. Control group. • One-way ANOVA, Dunnett test: • NLS-12 groups vs. Control group. • NLS-12 groups vs. Donep 2 group. • Read-outs: DI and N-F, for all groups, paired Student's t test, difference vs. 0. • Body weight: one-way ANOVA."}, "[2]": {"assay": "Body weight of the mice in the NOR study", "conditions": "Donepezil 2 mg/kg i.p. group; mean, N = 16", "from_the_text": "as §1"}, "[3]": {"system": "memory (recognition of the familiar object) in mice", "assay": "Novel Object Recognition (NOR) test in mice", "conditions": "Donepezil 2 mg/kg i.p., 72 h post treatment, mean, N = 16"}}, "note": "Structures can show the parent of a compound that is named as a salt."}
{"smiles": "COc1cc2c(cc1OC)C(=O)C(CC1CCN(Cc3ccccc3)CC1)C2", "note": "(stereo not shown) [Donepezil, Donepezil hydrochloride, reference compound]", "values": [{"measurement": "N − F Exploration time novel − familiar object", "setting": "[1]; Donepezil 2 mg/kg i.p. 30 min before sample trial, choice trial", "value": 4.3, "unit": "s"}, {"measurement": "ST Exploration time in the sample trial", "setting": "[1]; Donepezil 2 mg/kg i.p., 30 min post treatment", "value": 20.2, "unit": "s"}, {"measurement": "ST Exploration time in the sample trial (s)", "setting": "[1]; Donepezil 2 mg/kg i.p., 30 min post treatment, hydrochloride", "value": "decreased the exploration time during the sample trial"}, {"measurement": "N Exploration time of novel object", "setting": "[1]; Donepezil 2 mg/kg i.p., choice trial", "value": 13.1, "unit": "s"}, {"measurement": "BW Body weight", "setting": "[2]", "value": 23.2, "unit": "g"}, {"measurement": "CT Exploration time in the choice trial (s) = N + F", "setting": "[3]", "value": 21.7, "unit": "s"}, {"measurement": "CT Exploration time in the choice trial (s) = N + F", "setting": "[3]; hydrochloride", "value": "did not significantly modify the exploration time during the choice trial"}]}
